Like-named read-outs stand apart in the source and are kept apart here.
Key:
[1] = system: vessels of the glans penis; assay: Vasodilatory action, into the corpus cavernosum versus topical; type: in vivo; conditions: external application; compared with misoprostol
From the text: This is due to the differences in the mechanism of action on erectile function between misoprostol and other vasodilators (e.g. alprostadil): misoprostol applied topically can penetrate into the corpora cavernosa and can act on the smooth muscle fibers of the vessels, compared to other vasodilators. Further, its major site of action is on the vessels of the glans penis, and to a lesser extent, the prepuce.

Solubility in water = type: physicochemical
[2] = cited from earlier work
[3] = system: human male subjects having ED; assay: Clinical trials in human male subjects having ED; type: in vivo
Method: Subjects were 52 men aged 22-67 years, with ED of various causes. […] In all trials with these subjects, the following methods were applied successively for from a few days to 4 weeks: intracavernosal injection of 1.0 ml papaverine solution, 40 μγ/ml; […]; […]; topical application to the glans penis 0.08 to 0.1 ml, misoprostol gel 1000 μg/ml; intraurethral application of 0.08 to 0.1 ml misoprostol gel 1000 μg/ml; and topical application to the glans penis 0.1 ml. Gel of placebo.
In the tests using either the gel or cream containing about […] of misoprostol per 0.1 ml, the formulation was applied by the patients themselves using their finger and a few retroactive movements of the prepuce on the glans of penis until the ointment was completely absorbed. The intraurethral gel was instilled by the patients with help of a thin syringe and a lubricating medium (propylene glycol or glycerin) to facilitate insertion of the syringe.
In some patients with venous leak problems, a bandage tourniquet with a rubber band (or condom) on the base of the penis was applied 15-20 minutes after application of misoprostol. This method was particularly effective. […] In various subjects with ED due to one of several different causes, “pelvic exercises” were recommended (Kegel exercises) while the erection was developing. […] All tests were performed in the clinic without visual or any other type of stimulation.

[4] = human, in vivo
[5] = Single high dosage, systemic undesirable effects (Example 9); conditions: in the presence of α-cyclodextrin
[6] = at 35° C.; cited from earlier work
[7] = total (N = 52), externally applied gel, 80-100 μg
[8] = total (N = 52), intraurethral applied gel, 80-100 μg
[9] = total (N = 52), intracavernosal injection, 0.5 ml of 1.0 mg/ml
[10] = total (N = 52), intraurethral ointment or γ-cyclodextrin complex in K-Y jelly, 1000 μg PGE1 in 0.1 ml
[11] = total (N = 52), intracavernosal injection, 1 ml of 4%

CCCCC(C)(O)C/C=C/[C@H]1[C@H](O)CC(=O)[C@@H]1CCCCCCC(=O)O (mixture of isomers) [misoprostol acid]
topical vasodilation [1]: equivalent strong topical vasodilation

CCCCC(C)(O)C/C=C/[C@H]1[C@H](O)CC(=O)[C@@H]1CCCCCCC(=O)OC (mixture of isomers) [misoprostol, (11a 13E)-(±)-11,16-dihydroxy-16-methyl-9-oxoprost-13-en-1-oic acid methyl ester]
solubility in water (in words) (Solubility in water): water soluble | undesirable effect of oral therapy [2]: male impotence | allergic or other topical reaction ([3]; application to glans penis or urethra): No allergic or any other topical reaction was reported except for redness of the glans | subjects having a positive pharmacological outcome ([3]; hormonal ED (N = 1), externally applied gel, 80-100 μg): 1 | subjects having a positive pharmacological outcome ([3]; hormonal ED (N = 1), intraurethral applied gel, 80-100 μg): 1 | subjects having a positive pharmacological outcome ([3]; neurogenic ED (N = 5), externally applied gel, 80-100 μg): 4 | subjects having a positive pharmacological outcome ([3]; neurogenic ED (N = 5), intraurethral applied gel, 80-100 μg): 5 | subjects having a positive pharmacological outcome ([3]; psychogenic ED (N = 15), externally applied gel, 80-100 μg): 13 | subjects having a positive pharmacological outcome ([3]; psychogenic ED (N = 15), intraurethral applied gel, 80-100 μg): 14 | percent of subjects having a positive pharmacological outcome [3, 7]: 62% | subjects having a positive pharmacological outcome [3, 7]: 32 | percent of subjects having a positive pharmacological outcome [3, 8]: 73% | subjects having a positive pharmacological outcome [3, 8]: 38 | subjects having a positive pharmacological outcome ([3]; undetermined etiology (N = 7), externally applied gel, 80-100 μg): 4 | subjects having a positive pharmacological outcome ([3]; undetermined etiology (N = 7), intraurethral applied gel, 80-100 μg): 5 | subjects having a positive pharmacological outcome ([3]; vascular ED (N = 24), externally applied gel, 80-100 μg): 10 | subjects having a positive pharmacological outcome ([3]; vascular ED (N = 24), intraurethral applied gel, 80-100 μg): 13 | single high dose that can cause systemic undesirable effects (fatigue, erythema and diarrhea) [4]: > 1000 micrograms | single high dose that can cause systemic undesirable effects (fatigue, erythema and diarrhea) ([4]; male): > 1800 micrograms | single higher dose allowed, undesirable effects reduced or eliminated [5]: > 2000 micrograms

CCCCC[C@H](O)/C=C/[C@H]1[C@H](O)CC(=O)[C@@H]1CCCCCCC(=O)O [alprostadil]
subjects having a positive pharmacological outcome ([3]; hormonal ED (N = 1), intracavernosal injection, 0.5 ml of 1.0 mg/ml): 1 | subjects having a positive pharmacological outcome ([3]; hormonal ED (N = 1), intraurethral ointment or γ-cyclodextrin complex in K-Y jelly, 1000 μg PGE1 in 0.1 ml): 0 | subjects having a positive pharmacological outcome ([3]; neurogenic ED (N = 5), intracavernosal injection, 0.5 ml of 1.0 mg/ml): 4 | subjects having a positive pharmacological outcome ([3]; neurogenic ED (N = 5), intraurethral ointment or γ-cyclodextrin complex in K-Y jelly, 1000 μg PGE1 in 0.1 ml): 1 | subjects having a positive pharmacological outcome ([3]; psychogenic ED (N = 15), intracavernosal injection, 0.5 ml of 1.0 mg/ml): 11 | subjects having a positive pharmacological outcome ([3]; psychogenic ED (N = 15), intraurethral ointment or γ-cyclodextrin complex in K-Y jelly, 1000 μg PGE1 in 0.1 ml): 9 | percent of subjects having a positive pharmacological outcome [3, 9]: 60% | subjects having a positive pharmacological outcome [3, 9]: 31 | percent of subjects having a positive pharmacological outcome [3, 10]: 31% | subjects having a positive pharmacological outcome [3, 10]: 16 | subjects having a positive pharmacological outcome ([3]; undetermined etiology (N = 7), intracavernosal injection, 0.5 ml of 1.0 mg/ml): 5 | subjects having a positive pharmacological outcome ([3]; undetermined etiology (N = 7), intraurethral ointment or γ-cyclodextrin complex in K-Y jelly, 1000 μg PGE1 in 0.1 ml): 1 | subjects having a positive pharmacological outcome ([3]; vascular ED (N = 24), intracavernosal injection, 0.5 ml of 1.0 mg/ml): 10 | subjects having a positive pharmacological outcome ([3]; vascular ED (N = 24), intraurethral ointment or γ-cyclodextrin complex in K-Y jelly, 1000 μg PGE1 in 0.1 ml): 5 | solubility in water [6]: 8000 micrograms/100 ml

COc1ccc(Cc2nccc3cc(OC)c(OC)cc23)cc1OC [papaverine]
subjects having a positive pharmacological outcome ([3]; hormonal ED (N = 1), intracavernosal injection, 1 ml of 4%): 0 | subjects having a positive pharmacological outcome ([3]; neurogenic ED (N = 5), intracavernosal injection, 1 ml of 4%): 2 | subjects having a positive pharmacological outcome ([3]; psychogenic ED (N = 15), intracavernosal injection, 1 ml of 4%): 10 | percent of subjects having a positive pharmacological outcome [3, 11]: 42% | subjects having a positive pharmacological outcome [3, 11]: 22 | subjects having a positive pharmacological outcome ([3]; undetermined etiology (N = 7), intracavernosal injection, 1 ml of 4%): 3 | subjects having a positive pharmacological outcome ([3]; vascular ED (N = 24), intracavernosal injection, 1 ml of 4%): 7

Source: patent publication US6589990B1, “Methods and compositions for misoprostol compound treatment of erectile dysfunction” (priority 1997, dated 2003)
